#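 96-well plates; 48 h exposure; 5 concentrations. Endpoints by linear interpolation between flanking doses. Not reached: highest tested concentration assigned. GI50: concentration for 50% inhibition of growth. The concentration for full growth arrest is given as TGI.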
# Key:
# Test in all cases: growth of human tumour cells (NCI), 48 h
# U251 CNS = tested on: U251 CNS
# A549 NSCLC = tested on: A549 NSCLC
# UACC-62 melanoma = tested on: UACC-62 melanoma
# RXF 393 renal = tested on: RXF 393 renal
# ACHN renal = tested on: ACHN renal
# DU-145 prostate = tested on: DU-145 prostate
# 786-0 renal = tested on: 786-0 renal
# UO-31 renal = tested on: UO-31 renal
# UACC-257 melanoma = tested on: UACC-257 melanoma
# SK-MEL-5 melanoma = tested on: SK-MEL-5 melanoma
# M14 melanoma = tested on: M14 melanoma
# HT29 colon = tested on: HT29 colon
# LOX IMVI melanoma = tested on: LOX IMVI melanoma
# OVCAR-8 ovarian = tested on: OVCAR-8 ovarian
# SK-OV-3 ovarian = tested on: SK-OV-3 ovarian
# MDA-MB-435 = tested on: MDA-MB-435
# NCI-H460 lung = tested on: NCI-H460 lung
# SN12C renal = tested on: SN12C renal
# RPMI-8226 leukemia = tested on: RPMI-8226 leukemia
# NCI-H522 lung = tested on: NCI-H522 lung
# OVCAR-4 ovarian = tested on: OVCAR-4 ovarian
# COLO 205 colon = tested on: COLO 205 colon
# SR leukemia = tested on: SR leukemia
# MALME-3M melanoma = tested on: MALME-3M melanoma
# K-562 leukemia = tested on: K-562 leukemia
# NCI-H23 lung = tested on: NCI-H23 lung
# IGROV1 ovarian = tested on: IGROV1 ovarian
# SK-MEL-28 melanoma = tested on: SK-MEL-28 melanoma
# SF-539 CNS = tested on: SF-539 CNS
# EKVX NSCLC = tested on: EKVX NSCLC
# MDA-MB-231 breast = tested on: MDA-MB-231 breast
# T-47D breast = tested on: T-47D breast
# KM12 colon = tested on: KM12 colon
# PC-3 prostate = tested on: PC-3 prostate
# OVCAR-3 ovarian = tested on: OVCAR-3 ovarian
# HL-60(TB) leukemia = tested on: HL-60(TB) leukemia
# CAKI-1 renal = tested on: CAKI-1 renal
# A498 renal = tested on: A498 renal
# MOLT-4 leukemia = tested on: MOLT-4 leukemia
# TK-10 renal = tested on: TK-10 renal
# SW-620 colon = tested on: SW-620 colon
# OVCAR-5 ovarian = tested on: OVCAR-5 ovarian
# CCRF-CEM leukemia = tested on: CCRF-CEM leukemia
# SK-MEL-2 melanoma = tested on: SK-MEL-2 melanoma
# SNB-19 CNS = tested on: SNB-19 CNS
# BT-549 breast = tested on: BT-549 breast
# HS 578T breast = tested on: HS 578T breast
# NCI/ADR-RES ovarian = tested on: NCI/ADR-RES ovarian
# SF-295 CNS = tested on: SF-295 CNS
# HCT-116 colon = tested on: HCT-116 colon
# SF-268 CNS = tested on: SF-268 CNS
# SNB-75 CNS = tested on: SNB-75 CNS
# HCC-2998 colon = tested on: HCC-2998 colon
# NCI-H226 lung = tested on: NCI-H226 lung
# HCT-15 colon = tested on: HCT-15 colon
# MCF7 breast = tested on: MCF7 breast
# HOP-92 NSCLC = tested on: HOP-92 NSCLC
smiles,measurement,setting,value
CC(C)N1C(NNC(=O)c2cnccn2)=NS(=O)(=O)c2ccccc21,GI50,U251 CNS,> 100 µM
same,TGI,U251 CNS,> 100 µM
same,GI50,A549 NSCLC,> 100 µM
same,TGI,A549 NSCLC,> 100 µM
same,GI50,UACC-62 melanoma,> 100 µM
same,TGI,UACC-62 melanoma,> 100 µM
same,GI50,RXF 393 renal,> 100 µM
same,TGI,RXF 393 renal,> 100 µM
same,GI50,ACHN renal,> 100 µM
same,TGI,ACHN renal,> 100 µM
same,GI50,DU-145 prostate,> 100 µM
same,TGI,DU-145 prostate,> 100 µM
same,GI50,786-0 renal,> 100 µM
same,TGI,786-0 renal,> 100 µM
same,GI50,UO-31 renal,> 100 µM
same,TGI,UO-31 renal,> 100 µM
same,GI50,UACC-257 melanoma,> 100 µM
same,TGI,UACC-257 melanoma,> 100 µM
same,GI50,SK-MEL-5 melanoma,> 100 µM
same,TGI,SK-MEL-5 melanoma,> 100 µM
same,GI50,M14 melanoma,> 100 µM
same,TGI,M14 melanoma,> 100 µM
same,GI50,HT29 colon,> 100 µM
same,TGI,HT29 colon,> 100 µM
same,GI50,LOX IMVI melanoma,> 100 µM
same,TGI,LOX IMVI melanoma,> 100 µM
same,GI50,OVCAR-8 ovarian,> 100 µM
same,TGI,OVCAR-8 ovarian,> 100 µM
same,GI50,SK-OV-3 ovarian,> 100 µM
same,TGI,SK-OV-3 ovarian,> 100 µM
same,GI50,MDA-MB-435,> 100 µM
same,TGI,MDA-MB-435,> 100 µM
same,GI50,NCI-H460 lung,> 100 µM
same,TGI,NCI-H460 lung,> 100 µM
same,GI50,SN12C renal,> 100 µM
same,TGI,SN12C renal,> 100 µM
same,GI50,RPMI-8226 leukemia,> 100 µM
same,TGI,RPMI-8226 leukemia,> 100 µM
same,GI50,NCI-H522 lung,> 100 µM
same,TGI,NCI-H522 lung,> 100 µM
same,GI50,OVCAR-4 ovarian,> 100 µM
same,TGI,OVCAR-4 ovarian,> 100 µM
same,GI50,COLO 205 colon,> 100 µM
same,TGI,COLO 205 colon,> 100 µM
same,GI50,SR leukemia,> 100 µM
same,TGI,SR leukemia,> 100 µM
same,GI50,MALME-3M melanoma,> 100 µM
same,TGI,MALME-3M melanoma,> 100 µM
same,GI50,K-562 leukemia,> 100 µM
same,TGI,K-562 leukemia,> 100 µM
same,GI50,NCI-H23 lung,> 100 µM
same,TGI,NCI-H23 lung,> 100 µM
same,GI50,IGROV1 ovarian,> 100 µM
same,TGI,IGROV1 ovarian,> 100 µM
same,GI50,SK-MEL-28 melanoma,> 100 µM
same,TGI,SK-MEL-28 melanoma,> 100 µM
same,GI50,SF-539 CNS,> 100 µM
same,TGI,SF-539 CNS,> 100 µM
same,GI50,EKVX NSCLC,> 100 µM
same,TGI,EKVX NSCLC,> 100 µM
same,GI50,MDA-MB-231 breast,> 100 µM
same,TGI,MDA-MB-231 breast,> 100 µM
same,GI50,T-47D breast,> 100 µM
same,TGI,T-47D breast,> 100 µM
same,GI50,KM12 colon,> 100 µM
same,TGI,KM12 colon,> 100 µM
same,GI50,PC-3 prostate,> 100 µM
same,TGI,PC-3 prostate,> 100 µM
same,GI50,OVCAR-3 ovarian,> 100 µM
same,TGI,OVCAR-3 ovarian,> 100 µM
same,GI50,HL-60(TB) leukemia,> 100 µM
same,TGI,HL-60(TB) leukemia,> 100 µM
same,GI50,CAKI-1 renal,> 100 µM
same,TGI,CAKI-1 renal,> 100 µM
same,GI50,A498 renal,> 100 µM
same,TGI,A498 renal,> 100 µM
same,GI50,MOLT-4 leukemia,> 100 µM
same,TGI,MOLT-4 leukemia,> 100 µM
same,GI50,TK-10 renal,> 100 µM
same,TGI,TK-10 renal,> 100 µM
same,GI50,SW-620 colon,> 100 µM
same,TGI,SW-620 colon,> 100 µM
same,GI50,OVCAR-5 ovarian,> 100 µM
same,TGI,OVCAR-5 ovarian,> 100 µM
same,GI50,CCRF-CEM leukemia,1.33 µM
same,TGI,CCRF-CEM leukemia,6.3 µM
same,GI50,SK-MEL-2 melanoma,> 100 µM
same,TGI,SK-MEL-2 melanoma,> 100 µM
same,GI50,SNB-19 CNS,> 100 µM
same,TGI,SNB-19 CNS,> 100 µM
same,GI50,BT-549 breast,> 100 µM
same,TGI,BT-549 breast,> 100 µM
same,GI50,HS 578T breast,> 100 µM
same,TGI,HS 578T breast,> 100 µM
same,GI50,NCI/ADR-RES ovarian,> 100 µM
same,TGI,NCI/ADR-RES ovarian,> 100 µM
same,GI50,SF-295 CNS,> 100 µM
same,TGI,SF-295 CNS,> 100 µM
same,GI50,HCT-116 colon,> 100 µM
same,TGI,HCT-116 colon,> 100 µM
same,GI50,SF-268 CNS,> 100 µM
same,TGI,SF-268 CNS,> 100 µM
same,GI50,SNB-75 CNS,94.5 µM
same,TGI,SNB-75 CNS,> 100 µM
same,GI50,HCC-2998 colon,> 100 µM
same,TGI,HCC-2998 colon,> 100 µM
same,GI50,NCI-H226 lung,> 100 µM
same,TGI,NCI-H226 lung,> 100 µM
same,GI50,HCT-15 colon,> 100 µM
same,TGI,HCT-15 colon,> 100 µM
same,GI50,MCF7 breast,> 100 µM
same,TGI,MCF7 breast,> 100 µM
CC(C)C/C=C/C1=NN(c2cccc(S(=O)(=O)O)c2)C2(C1)SCC(=O)N2c1nc2ccccc2s1 (stereo unspecified),TGI,U251 CNS,> 100 µM
same,TGI,A549 NSCLC,> 100 µM
same,TGI,UACC-62 melanoma,> 100 µM
same,TGI,RXF 393 renal,> 100 µM
same,TGI,ACHN renal,> 100 µM
same,TGI,DU-145 prostate,> 100 µM
same,TGI,786-0 renal,46.3 µM
same,TGI,UO-31 renal,> 100 µM
same,TGI,UACC-257 melanoma,> 100 µM
same,TGI,SK-MEL-5 melanoma,> 100 µM
same,TGI,M14 melanoma,> 100 µM
same,TGI,HT29 colon,> 100 µM
same,TGI,LOX IMVI melanoma,70 µM
same,TGI,OVCAR-8 ovarian,> 100 µM
same,TGI,MDA-MB-435,84.6 µM
same,TGI,HOP-92 NSCLC,> 100 µM
same,TGI,NCI-H460 lung,> 100 µM
same,TGI,SN12C renal,> 100 µM
same,TGI,RPMI-8226 leukemia,49.6 µM
same,TGI,NCI-H522 lung,60.2 µM
same,TGI,OVCAR-4 ovarian,> 100 µM
same,TGI,COLO 205 colon,> 100 µM
same,TGI,SR leukemia,74.5 µM
same,TGI,MALME-3M melanoma,> 100 µM
same,TGI,K-562 leukemia,> 100 µM
same,TGI,NCI-H23 lung,> 100 µM
same,TGI,IGROV1 ovarian,> 100 µM
same,TGI,SK-MEL-28 melanoma,> 100 µM
same,TGI,SF-539 CNS,> 100 µM
same,TGI,EKVX NSCLC,> 100 µM
same,TGI,MDA-MB-231 breast,> 100 µM
same,TGI,T-47D breast,47.2 µM
same,TGI,KM12 colon,> 100 µM
same,TGI,PC-3 prostate,> 100 µM
same,TGI,HL-60(TB) leukemia,82 µM
same,TGI,CAKI-1 renal,> 100 µM
same,TGI,A498 renal,88.2 µM
same,TGI,MOLT-4 leukemia,> 100 µM
same,TGI,TK-10 renal,> 100 µM
same,TGI,SW-620 colon,> 100 µM
same,TGI,OVCAR-5 ovarian,> 100 µM
same,TGI,CCRF-CEM leukemia,64.4 µM
same,TGI,SK-MEL-2 melanoma,> 100 µM
same,TGI,SNB-19 CNS,> 100 µM
same,TGI,BT-549 breast,> 100 µM
same,TGI,HS 578T breast,> 100 µM
same,TGI,NCI/ADR-RES ovarian,> 100 µM
same,TGI,HCT-116 colon,> 100 µM
same,TGI,SF-268 CNS,> 100 µM
same,TGI,SNB-75 CNS,> 100 µM
same,TGI,HCC-2998 colon,> 100 µM
same,TGI,NCI-H226 lung,> 100 µM
same,TGI,HCT-15 colon,> 100 µM
same,TGI,MCF7 breast,> 100 µM
